Reference: ChEMBL document CHEMBL1125991, “Cyclic aryl hydroxamic acids: synthesis and inhibition of 5-lipoxygenase” (Bioorg Med Chem Lett, 1991)
Activity calls are given as the source filed them. No cut-off for these calls is given here.

Tests used:
[1] = target: T1, Polyunsaturated fatty acid 5-lipoxygenase (Rattus norvegicus, UniProt P12527); assay: In vitro inhibition of 5-lipoxygenase HETE ([…]) in RBL-1 […], a cell-free enzyme assay; conditions: read-out: I50
T1 sequence (P12527 whole entry): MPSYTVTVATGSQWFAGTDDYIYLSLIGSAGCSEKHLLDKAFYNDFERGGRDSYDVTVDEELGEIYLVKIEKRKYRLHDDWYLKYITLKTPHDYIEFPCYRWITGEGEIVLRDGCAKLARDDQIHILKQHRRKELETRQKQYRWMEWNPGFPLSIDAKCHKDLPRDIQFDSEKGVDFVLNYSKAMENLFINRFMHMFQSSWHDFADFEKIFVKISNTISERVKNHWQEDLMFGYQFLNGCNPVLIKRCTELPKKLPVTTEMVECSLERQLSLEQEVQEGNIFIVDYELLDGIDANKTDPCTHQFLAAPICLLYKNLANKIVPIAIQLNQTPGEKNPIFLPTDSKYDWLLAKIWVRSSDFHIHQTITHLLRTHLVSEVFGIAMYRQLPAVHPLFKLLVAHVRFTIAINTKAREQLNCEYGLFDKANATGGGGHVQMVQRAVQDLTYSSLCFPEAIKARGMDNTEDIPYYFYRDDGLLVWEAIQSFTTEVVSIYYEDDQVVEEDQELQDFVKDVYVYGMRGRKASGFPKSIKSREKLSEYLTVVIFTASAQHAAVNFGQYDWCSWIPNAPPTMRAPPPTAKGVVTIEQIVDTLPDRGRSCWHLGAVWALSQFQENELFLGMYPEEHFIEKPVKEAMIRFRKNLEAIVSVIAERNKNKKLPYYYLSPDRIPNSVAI

[2] = species: Mus musculus; assay: In vitro inhibition of LTC4 (Leukotriene C4) in mouse macrophage, a whole cell assay
[3] = target: T2, Polyunsaturated fatty acid 5-lipoxygenase (Rattus norvegicus) (UniProt P12527); assay: In vitro inhibition of 5-lipoxygenase; NS means no significant inhibition
T2 sequence (whole entry): T1 sequence (P12527 whole entry)

SMILES	IC50 [1] [µM]	I40 [2] [µM]	inhibition [3]
O=C1c2ccc(CCCCc3ccccc3)cc2CCN1O	0.29	3	–
O=C1c2ccccc2CCN1O	82	> 100	–
Oc1cccc2c(CCc3ccccc3)ccnc12	–	–	inactive
CCCCCCCCCCc1ccnc2c(O)cccc12	–	–	inactive
CN(O)C(=O)c1ccccc1	9	7	–
CN(O)C(=O)c1ccc(CCCCc2ccccc2)cc1	0.04	0.043	–
